Results as given in paper PMC5655031, “A Linear 19-Mer Plant Defensin-Derived Peptide Acts Synergistically with Caspofungin against Candida albicans Biofilms” (Frontiers in Microbiology, 2017).
Read-outs that look alike come from different tables or passages of the source. Numbered stars: 1 amine (or outer) side, 2 acyl side, 3 side chain; on linkers, the order of the positions; unused ones are H or OH. Bridge positions count the residues as written; N and C are the ends. Square brackets hold non-standard residues; d marks the D form. Ends that are not written are not given here. Peptide text beside a SMILES is read from it. * marks the point of attachment. hTyr(3S-OH,4S-OH,3'-OSO3H) = N[C@H](C(=O)O)[C@H](O)[C@@H](O)c1ccc(O)c(OS(=O)(=O)O)c1; pTerphenylCO(4''-OnC5H11) = CCCCCOc1ccc(-c2ccc(-c3ccc(C(=O)*)cc3)cc2)cc1; Orn(4R-OH,5R-OH) = O=C([C@H](C[C@@H](O)[C@@H](O)N[*:3])N[*:1])[*:2]; hTyr(3S-OH,4S-OH) = N[C@H](C(=O)O)[C@H](O)[C@@H](O)c1ccc(O)cc1; Pro(3S-OH,4S-Me) = C[C@H]1CN[C@H](C(=O)O)[C@H]1O; X1 = CCCCCOc1ccc(-c2cc(-c3ccc(C(=O)*)cc3)no2)cc1; Gln(3R-OH) = NC(=O)C[C@@H](O)[C@H](N)C(=O)O; Hyp = O=C(O)[C@@H]1C[C@@H](O)CN1; Abu = CC[C@H](N)C(=O)O

Tests used:
[1] = test system: Candida albicans biofilms; experiment: microbe, parasite or virus in culture
Candida krusei biofilms = experiment: In vitro biofilm inhibition assay in microtiter plates (XTT quantification); format: cell-based; conditions: Pichia kudriavzevii, caspofungin alone, n = 3, read-out: BIC50 (CASPO) ± SEM
[2] = test system: Candida albicans biofilms; experiment: as above; format: cell-based; conditions: caspofungin alone, n = 3, read-out: BIC50 (CASPO) ± SEM
[3] = test system: planktonic C. albicans SC5314 WT cells; experiment: Flow cytometry: HsLin06_18-FITC uptake and membrane permeabilization (PI); format: cell-based, Candida albicans; conditions: 0.01 μM caspofungin alone; vs t0
Protocol: (§1) Membrane permeabilization and HsLin06_18 internalization were determined via flow cytometric analysis on planktonic C. albicans SC5314 WT cells. Exponentially growing cells were exposed to caspofungin ([…]), HsLin06_18-FITC (4.6 μM) or its combination (as described in the material and methods section “fungicidal activity assay”), and to propidium iodide (PI) (2 μg/mL), after which they were subjected to flow cytometry on a BD Influx™ cell sorter. Per treatment, 10,000 cells were monitored for fluorescence at 530/40 nm (FL2_λex = 488 nm) and 610/20 nm (FL11_ λex = 561 nm) for the detection of HsLin06_18-FITC internalization (FITC+) and membrane permeabilization (PI+), respectively. Data from cells treated with 4.6 μM HsLin06_18-FITC were used as background signal.

[4] = test system: planktonic Candida albicans fks1 mutant cells; experiment: Flow cytometry: HsLin06_18-FITC uptake and membrane permeabilization (PI), fks1 mutant; format: cell-based; conditions: caspofungin (0.5 μM) alone; 40 minutes; n = 3
Protocol: as §1
[picture] Supplementary Figure S3: HsLin06_18-FITC uptake and membrane permeabilization in planktonic Candida albicans WT and fks1 mutant cells, determined via flow cytometry. Cells were treated for 40 minutes with 0.5 µM caspofungin and/or […] HsLin06_18-FITC (HsL-F) and 2 µg/mL propidium iodide (PI). […]

[5] = test system: C. albicans SC5314 WT planktonic cells; experiment: Fungicidal activity assay (plating, CFU) on planktonic cells; format: cell-based, Candida albicans; conditions: caspofungin alone, concentrations up to 50 μM, one representative experiment out of 2
Protocol: […] Both at the start and at all measuring points, surviving yeast cells was determined via plating assays. In a plating assay, 10-fold dilution series of yeast cells in PBS were prepared, after which 100 μL was plated on YPD plates. After 1 day of incubation at 37°C, the number of colony forming units (CFU) was counted and cell death was calculated relative to time zero (t0). MFC50 values, indicating the minimum fungicidal concentration resulting in 50% cell death, were determined. In parallel with the plating assay, confocal microscopic or flow cytometric analysis were performed on the samples.

[6] = test system: C. albicans caspofungin-resistant mutant M177 (fks1 mutant) biofilms; experiment: microbe, parasite or virus in culture; conditions: Candida albicans, read-out: BIC50 (CASPO) ± SEM
[7] = test system: Candida dubliniensis biofilms; experiment: In vitro biofilm inhibition assay in microtiter plates (XTT quantification); format: cell-based; conditions: caspofungin alone, n = 3, read-out: BIC50 (CASPO) ± SEM
[8] = test system: Candida glabrata biofilms; experiment: as above; format: cell-based; conditions: Nakaseomyces glabratus, caspofungin alone, n = 3, read-out: BIC50 (CASPO) ± SEM
[9] = test system: C. albicans biofilms on catheter pieces; experiment: In vivo biofilm inhibition assay, subcutaneous rat catheter model; conditions: intravenously (IV) administered, once daily for 7 days; CFU
Protocol: All animal experiments were in accordance with the KU Leuven animal care guidelines and approved by the Ethical Committee of the KU Leuven (P069/2016). In vivo C. albicans biofilms were formed inside catheter pieces in immunosuppressed female Sprague–Dawley rats (200 g) as described previously (Ricicova et al., [2010]). Briefly, serum pre-incubated catheters were infected with C. albicans cells (5 × 10^4 cells/mL) prepared in RPMI medium during the adhesion period (90 min at 37°C). After a washing step, 9 catheter pieces were implanted into the back area of one rat. Inhibition of in vivo C. albicans biofilm formation was initiated immediately after the implant. […] Catheters were explanted from euthanized animals and the number of cells per individual biofilm was determined by CFU (Ricicova et al., [2010]). In vivo experiments were performed once (in total three animals/group).

[10] = test system: C. albicans biofilms on serum pre-incubated polyurethane catheters; experiment: In vitro biofilm inhibition assay on catheters; format: cell-based, Candida albicans; conditions: 24 h treatment; CFU
Protocol: Polyurethane catheters, overnight incubated in bovine serum, were infected with C. albicans or C. glabrata cells (5 × 10^4 cells/mL) in RPMI medium (Kucharikova et al., [2015]). […] All experiments were performed in quadruplicate with at least three biological repeats.

[11] = test system: C. albicans caspofungin-resistant mutant M177 (fks1 mutant) biofilms; conditions: fks1 mut
[12] = HsLin06_18 cytotoxicity assay (MTT); format: cell-based; conditions: human, 24 h treatment, relative to 1% DMSO control, read-out: EC50 (half maximal effective concentration), cytotoxicity
Protocol: Drug cytotoxicity testing was performed as described previously (Vriens et al., [2015b]). Briefly, human hepatoma (HepG2) cells were treated for 24 h with caspofungin, HsLin06_18, its combination or control treatment (1% DMSO). Cell viability was determined by MTT staining (Roche Diagnostics, Germany) and expressed relative to the control treatment. All experiments were performed in quadruplicate with at least three biological repeats.

[13] = test system: Candida albicans biofilms; conditions: Caspofungin + HsLin; microtiter plate; means for n ≥ 2
candidiasis = conditions: administered systemically at 7 or 14 mg/kg/day; ref Tavares et al., 2008; cited from earlier work
[14] = read-out: BIC50 (echinocandin) ± SEM

For `CCCCCOc1ccc(-c2ccc(-c3ccc(C(=O)N[C@H]4C[C@@H](O)[C@@H](O)NC(=O)[C@@H]5[C@@H](O)[C@@H](C)CN5C(=O)[C@H]([C@@H](C)O)NC(=O)[C@H]([C@H](O)[C@@H](O)c5ccc(O)cc5)NC(=O)[C@@H]5C[C@@H](O)CN5C(=O)[C@H]([C@@H](C)O)NC4=O)cc3)cc2)cc1` [Anidulafungin] ({pTerphenylCO(4''-OnC5H11)}-[Orn(4R-OH,5R-OH)]T[Hyp][hTyr(3S-OH,4S-OH)]T[Pro(3S-OH,4S-Me)]; lactam 1-C), which IC50 [1, 14] is on record?
Its IC50 is 930 ± 120 nM.

With `CC[C@H](C)C[C@H](C)CCCCCCCCC(=O)N[C@H]1C[C@@H](O)[C@@H](NCCN)NC(=O)[C@@H]2[C@@H](O)CCN2C(=O)[C@H]([C@H](O)CCN)NC(=O)[C@H]([C@H](O)[C@@H](O)c2ccc(O)cc2)NC(=O)[C@@H]2C[C@@H](O)CN2C(=O)[C@H]([C@@H](C)O)NC1=O` [Caspofungin] as the compound, how does the IC50 (Candida krusei biofilms) read?
The IC50 was 1090 ± 12 nM.

What about the IC50 [2] of the same compound?
The IC50 was 700 ± 92 nM.

What about the “population of cells with compromised membranes” value [3] of the same compound?
Its value is “not significantly increased after 40 min”.

And the “cells with permeabilized membranes” value [4]?
The value was less than 0.2%.

And the cell death [5]?
The cell death was 30%.

What about the IC50 [6] of the same compound?
The IC50 was 7400 ± 1360 nM.

What about the IC50 ([1]; read-out: BIC50 (CASPO) ± SEM) of the same compound?
Its IC50 is 830 ± 96 nM.

What about the IC50 [1, 14] of the same compound?
The IC50 was 960 ± 40 nM.

What about the IC50 [7] of the same compound?
The IC50 was 920 ± 17 nM.

What about the IC50 [8] of the same compound?
The IC50 was 1000 ± 115 nM.

What about the “sub-lethal dose in the subcutaneous rat catheter model” value [9] of the same compound?
The value was 0.25 mg/kg/day.

What about the “sub-lethal dose in the in vitro catheter setup” value [10] of the same compound?
Its value is 0.4 µM.

Which FICI ([11]; caspofungin + 2.5 µM HsLin06_18) does the source give for `CC[C@H](NC(=O)[C@H](C)NC(=O)CNC(=O)CNC(=O)[C@H](Cc1ccc(O)cc1)NC(=O)[C@H](C)NC(=O)[C@@H](N)Cc1ccccc1)C(=O)N[C@@H](Cc1c[nH]cn1)C(=O)N[C@@H](Cc1ccc(O)cc1)C(=O)N[C@@H](CCC(N)=O)C(=O)N[C@@H](Cc1ccccc1)C(=O)N1CCC[C@H]1C(=O)N[C@@H](CO)C(=O)N[C@H](C(=O)N[C@@H](CCCCN)C(=O)N[C@@H](CC)C(=O)N[C@@H](Cc1ccccc1)C(=O)N[C@@H](CC)C(=O)N[C@@H](CCCCN)C(=O)O)C(C)C` [HsLin06_18] (H-FAYGGA[Abu]HYQFPSVK[Abu]F[Abu]K-OH) here?
The FICI was less than 0.5.

And the FICI ([11]; caspofungin + 5 µM HsLin06_18)?
The FICI was less than 0.5.

What about the EC50 at 24 h [12] of the same compound?
Its EC50 at 24 h is greater than 50000 nM.

With `CCCCCOc1ccc(-c2cc(-c3ccc(C(=O)N[C@H]4C[C@@H](O)[C@@H](O)NC(=O)[C@@H]5[C@@H](O)[C@@H](C)CN5C(=O)[C@H]([C@H](O)CC(N)=O)NC(=O)[C@H]([C@H](O)[C@@H](O)c5ccc(O)c(OS(=O)(=O)O)c5)NC(=O)[C@@H]5C[C@@H](O)CN5C(=O)[C@H]([C@@H](C)O)NC4=O)cc3)no2)cc1` [Micafungin] (X1-[Orn(4R-OH,5R-OH)]T[Hyp][hTyr(3S-OH,4S-OH,3'-OSO3H)][Gln(3R-OH)][Pro(3S-OH,4S-Me)]; lactam 1-C) as the compound, how does the IC50 [1, 14] read?
The IC50 was 400 ± 88 nM.

For “FAYGGACHYQFPSVKXFCK (disulfide) [HsLin06_18_20]”, which “Fold change (reduction of the BIC50 of caspofungin by co-incubation with HsLin06_18 or HsLin06_18-variants)” value [13] is on record?
The value was 1.97.

Which “in vivo efficacy against candidiasis” value (candidiasis) does the source give for “RsAFP2: plant defensin (QKLCQRPSGTWSGVCGNNNACKNQCIRLEKARHGSCNYVFPAHKCICYFPC; ends and bridges not checked; cysteine pairing not given here; UniProt P30230 30-80, looked up)” here?
Its value is “prophylactically effective”.

Which “Fold change (reduction of the BIC50 of caspofungin by co-incubation with HsLin06_18 or HsLin06_18-variants)” value [13] does the source give for “FAYGGACHYQFPSVKCFXK (disulfide) [HsLin06_18_22]” here?
The value was 1.77.
